# Measured values published in PubChem BioAssay (NCI).
# Values joined by “and” are separate entries in the source; they are usually repeats but may differ in a detail not shown here. Equal entries are not always repeated.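 Exposure lasted 48 hours, with cells grown in 96-well plates and compounds tested at five concentrations. GI50 marks 50% less growth. Definition used: TGI = concentration required for complete inhibition of growth.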
# Tests used:
# Assay in all cases: NCI tumour cell line growth inhibition, 48 h
# HOP-92 NSCLC = tested on: HOP-92 NSCLC
# KM12 colon = tested on: KM12 colon
# MOLT-4 leukemia = tested on: MOLT-4 leukemia
# NCI-H226 lung = tested on: NCI-H226 lung
# SK-MEL-5 melanoma = tested on: SK-MEL-5 melanoma
# TK-10 renal = tested on: TK-10 renal
# U251 CNS = tested on: U251 CNS
# UO-31 renal = tested on: UO-31 renal
# SK-OV-3 ovarian = tested on: SK-OV-3 ovarian
# SNB-19 CNS = tested on: SNB-19 CNS
Compound,TGI (HOP-92 NSCLC) [µM],TGI (KM12 colon) [µM],TGI (MOLT-4 leukemia) [µM],TGI (NCI-H226 lung) [µM],TGI (SK-MEL-5 melanoma) [µM],TGI (TK-10 renal) [µM],TGI (U251 CNS) [µM],TGI (UO-31 renal) [µM],GI50 (HOP-92 NSCLC) [µM],GI50 (KM12 colon) [µM],GI50 (MOLT-4 leukemia) [µM],GI50 (NCI-H226 lung) [µM],GI50 (SK-MEL-5 melanoma) [µM],GI50 (SK-OV-3 ovarian) [µM],TGI (SK-OV-3 ovarian) [µM],GI50 (SNB-19 CNS) [µM],TGI (SNB-19 CNS) [µM],GI50 (TK-10 renal) [µM],GI50 (U251 CNS) [µM],GI50 (UO-31 renal)
COCCOCC(=O)N(CCn1ccc(NC(c2ccccc2)(c2ccccc2)c2ccccc2)nc1=O)CCn1cnc2nc(N)[nH]c(=O)c21,> 100,> 100,> 100,> 100,> 100,> 100,> 100,> 100,,,,,,,,,,,,
O=[N+]([O-])c1ccc2ncccc2c1Cl,24.6,9.14,12.2,> 100,10,46.1,11.8,> 100,6.57,2.17,3.07,6.22,2.95,3.13,> 100,4.2,23.4,6.38,3.38,5.02 µM
C=C1C(=O)O[C@H]2[C@H]1CC/C(COC(=O)c1ccc(C#N)cc1)=C\CC[C@@]1(C)O[C@@H]21,3.8,14.8,6.52,7.6,3.75,10.8,10.3,3.34,1.59,3.94,2.37,2.26,1.85,15.8,29.2,3.9,15.1,3.99,2.86,1.57 µM
COc1ccc(-c2csc(-c3cc(Cl)cc(Cl)c3Cl)n2)cc1,> 100,> 100,> 100,> 100,> 100,> 100,> 100,> 100,27.6,48.1,57,78,32.2,96.8,> 100,50.3,> 100,> 100,60.2,> 100 µM
CC1=C(c2cc(C(=O)Nc3cccc(C(F)(F)F)c3)ncn2)Sc2ccccc2N1,> 100,> 100,> 100,> 100,> 100,> 100,> 100,> 100,,,,,,,> 100,,> 100,,,
CC(=O)OC1CC2C(C)(C)C(=O)C=CC2(C)C2CCC3(C)C(c4ccoc4)OC(=O)C4OC43C12C (stereo unspecified),> 100,19.4,76.4,> 100,19.2,> 100,26.1,15.2,,,,,,,48.7,,> 100,,,
C=C(C)[C@@H]1CC[C@]2(COC3CCCCO3)CC[C@]3(C)[C@H](CC[C@@H]4[C@@]5(C)C=C(C=O)C(=O)C(C)(C)[C@@H]5CC[C@]43C)[C@@H]12 (stereo partly specified),2.89,3.5,29.9,4.43,2.93,2.96,2.71,2.74,1.49,1.37,1.03,1.95,1.58,1.84,3.32,1.35,2.89,1.57,1.18,1.36 µM
CCc1nc(Cl)nc(Cl)c1Cl,5.16,15.5,1.68,14.9,7.71,21.2,3.32,0.674,,,,,,,18.4,,11.3,,,
COc1ccc(/C(=N/NC(N)=O)C(c2ccc(OC)cc2)C2C(=O)Oc3ccccc32)cc1 (stereo unspecified),> 100,> 100,> 100,> 100,> 100,,> 100,> 100,,,,,,,> 100,,> 100,,,
O=C(O)C1(Cc2cccc(Nc3nccs3)n2)CCC(Oc2cccc(Cl)c2F)CC1 (stereo unspecified),44.7,29.3,63.8,39.6,28.7,61.9,> 54.8,79.8,13,0.204,15.7,11.6,14.8,12.8,46,20,73.9,18.8,24.4,16.3 µM
CC(C)(C)C(=O)O[C@@H]1COC2C(O)COC21 (stereo partly specified),> 100,> 100,49,,> 100,> 100,> 100,> 100,,,,,,,,,> 100,,,
CC(=O)OCC1O[C@@H]([S-])C(OC(C)=O)[C@H](OC(C)=O)[C@@H]1OC(C)=O.[Au+].c1ccc(CN2[CH-]N(Cc3ccccc3)C(c3ccccc3)=C2c2ccccc2)cc1,3.38,4.27,9.47,9.04,3.28,3.42,3.09,4.47,1.74,2.09,3.06,3,1.79,3.39,10.2,,,1.86,1.61,1.95 µM
O=C1c2c(O)cc(O)cc2OC(c2ccc(O)cc2O)C1O (stereo unspecified),> 100,> 100,,> 100,> 100,> 100,> 100,> 100,> 100,,,> 100,> 100,> 100,> 100,> 100,> 100,,> 100,> 100 µM
COc1cc(-c2cc(=O)c3cc(C)c(C)c(C(=O)O)c3o2)cc(OC)c1OC,> 100,> 100,> 100,,> 100,> 100,> 100,> 100,,,,,,,> 100,,> 100,,,
N#Cc1ccc(C(c2ccc(C#N)cc2)n2cncn2)cc1,,> 5000,> 5000,> 5000,> 5000,> 5000,> 5000,> 5000,,> 5000,> 5000,> 5000,3.33,> 5000,> 5000,> 5000,> 5000,1310,2850,60.8 µM and 119 µM
